The values that follow are results of earlier work, collected in patent US20070173464A1, “Oral ribavirin pharmaceutical compositions” (Flamel Technologies, priority 2005, published 2007).

≈ marks a conversion by molar mass, not a printed value.

One data set deals with Hepatitis C Virus (HC). The note with it: up to 1200 mg per day, typically 48 weeks, in conjunction with interferon or long acting pegylated interferon; genotype I patients.

Take `NC(=O)c1ncn([C@@H]2O[C@H](CO)[C@@H](O)[C@H]2O)n1` [Ribavirin, 1-beta-D-ribofuranosyl-1,2,4-thiazole-3-carboxamide]: the water solubility is 140 mg/mL (≈ 573 mM). The sustained virologic response with Hepatitis C Virus (HC) is given as 30 to 55 % of genotype I patients.
